# Results published in patent US4570006A, “Amidine compound, process for producing same and anti-complement agent comprising same” (Torii & Co. Ltd., priority 1981, dated 1986).
# Tests used:
# [1] = target: T1, Trypsin (Bos taurus, UniProt P00760); assay: Anti-trypsin activity (inhibition of TAME hydrolysis); assay type: biochemical; settings: read-out: ID50, trypsin
# T1 sequence (P00760 24-246): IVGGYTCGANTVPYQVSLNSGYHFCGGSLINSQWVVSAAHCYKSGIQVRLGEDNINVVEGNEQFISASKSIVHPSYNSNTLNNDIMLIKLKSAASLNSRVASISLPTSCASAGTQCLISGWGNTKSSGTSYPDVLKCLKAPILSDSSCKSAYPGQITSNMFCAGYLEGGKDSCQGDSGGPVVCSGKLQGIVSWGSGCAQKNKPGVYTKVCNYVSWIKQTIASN
# Method in brief: (§1)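 Inhibition of enzymatic TAME (tosylarginine methyl ester) hydrolysis, per Muramatsu et al. Values are ID50, the molar concentration of compound inhibiting 50% of each enzyme's TAME-hydrolysing activity.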
# [2] = target: Plasmin (Homo sapiens, UniProt P00747); assay: Anti-plasmin activity (inhibition of TAME hydrolysis); assay type: biochemical; settings: read-out: ID50, plasmin
# Method in brief: as §1
# [3] = tested on: Kallikrein; assay: Anti-kallikrein activity (inhibition of TAME hydrolysis); assay type: biochemical; settings: read-out: ID50, kallikrein
# Method in brief: as §1
# [4] = target: Thrombin (Homo sapiens, UniProt P00734); assay: biochemical; settings: TAME hydrolysis; read-out: ID50, thrombin
# [5] = target: T2, Clr (Homo sapiens, UniProt P00736); assay: Anti-Cl esterase activity, Clr (AAME hydrolysis); assay type: biochemical; settings: hydrolysis of AAME; read-out: Anti-Cl activity, Clr (ID50)
# T2 sequence (P00736 464-705 limits assumed): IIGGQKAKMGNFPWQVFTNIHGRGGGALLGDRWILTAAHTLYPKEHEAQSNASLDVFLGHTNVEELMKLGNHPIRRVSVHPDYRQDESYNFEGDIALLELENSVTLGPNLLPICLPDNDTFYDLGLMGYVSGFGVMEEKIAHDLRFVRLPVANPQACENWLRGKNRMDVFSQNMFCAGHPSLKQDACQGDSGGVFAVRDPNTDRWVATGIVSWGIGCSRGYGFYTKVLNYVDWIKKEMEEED
# T2 sequence (P00736 18-463 limits assumed): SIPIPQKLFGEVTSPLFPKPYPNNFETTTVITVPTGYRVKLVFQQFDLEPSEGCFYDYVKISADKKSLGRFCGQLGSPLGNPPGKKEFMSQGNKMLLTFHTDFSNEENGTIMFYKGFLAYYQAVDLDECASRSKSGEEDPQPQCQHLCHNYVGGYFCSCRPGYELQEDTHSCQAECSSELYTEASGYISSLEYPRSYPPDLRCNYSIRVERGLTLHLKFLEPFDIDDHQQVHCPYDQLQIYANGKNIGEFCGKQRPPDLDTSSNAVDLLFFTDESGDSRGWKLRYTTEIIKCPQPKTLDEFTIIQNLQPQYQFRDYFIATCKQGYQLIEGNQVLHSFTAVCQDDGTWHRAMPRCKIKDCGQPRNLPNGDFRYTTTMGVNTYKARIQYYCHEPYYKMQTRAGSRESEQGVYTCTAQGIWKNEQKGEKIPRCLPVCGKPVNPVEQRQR
# Method: The anti-Cl esterase ([…]) activity was determined according to the method of Okamura et al. [K. Okamura, M. Muramatsu and B. Fujii, Biochem. Biophys.
# [6] = target: T3, Cls (Homo sapiens, UniProt P09871); assay: Anti-Cl esterase activity, Cls (ATEE hydrolysis); assay type: biochemical; settings: hydrolysis of ATEE; read-out: Anti-Cl activity, Cls (50% inhibition)
# T3 sequence (P09871 438-688 limits assumed): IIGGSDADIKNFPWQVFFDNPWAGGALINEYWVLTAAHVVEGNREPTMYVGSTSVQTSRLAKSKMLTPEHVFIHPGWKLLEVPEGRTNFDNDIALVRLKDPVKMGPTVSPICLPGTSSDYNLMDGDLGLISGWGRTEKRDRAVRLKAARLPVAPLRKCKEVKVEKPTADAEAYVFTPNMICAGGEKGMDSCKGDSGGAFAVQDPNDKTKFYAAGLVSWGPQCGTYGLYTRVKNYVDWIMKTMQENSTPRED
# T3 sequence (P09871 16-437 limits assumed): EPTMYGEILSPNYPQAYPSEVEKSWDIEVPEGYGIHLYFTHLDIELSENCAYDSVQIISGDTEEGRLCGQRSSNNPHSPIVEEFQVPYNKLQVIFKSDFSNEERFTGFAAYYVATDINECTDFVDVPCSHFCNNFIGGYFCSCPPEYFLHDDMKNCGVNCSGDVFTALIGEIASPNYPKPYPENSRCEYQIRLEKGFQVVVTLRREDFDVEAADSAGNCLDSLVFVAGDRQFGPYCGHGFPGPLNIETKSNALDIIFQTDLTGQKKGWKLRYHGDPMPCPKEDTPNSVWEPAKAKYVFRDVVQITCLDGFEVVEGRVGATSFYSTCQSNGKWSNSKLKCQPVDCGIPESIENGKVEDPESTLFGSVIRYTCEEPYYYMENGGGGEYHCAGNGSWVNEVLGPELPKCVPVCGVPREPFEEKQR
# Method: The anti-Cl esterase (Clr, Cls) activity was determined according to the method of Okamura et al. [K. Okamura, M. Muramatsu and B. Fujii, Biochem. Biophys. […] The figures in Table 2 have the following meanings:
# Cls: Molar concentration of the test compound which inhibits 50% of the ability of Cls to hydrolyse ATEE (acetyltyrosin ethyl ester).
# [7] = tested on: complement; assay: Inhibition of complement mediated hemolysis; assay type: cell-based
# Sequence of Plasmin (P00747 581-810 limits assumed, species assumed): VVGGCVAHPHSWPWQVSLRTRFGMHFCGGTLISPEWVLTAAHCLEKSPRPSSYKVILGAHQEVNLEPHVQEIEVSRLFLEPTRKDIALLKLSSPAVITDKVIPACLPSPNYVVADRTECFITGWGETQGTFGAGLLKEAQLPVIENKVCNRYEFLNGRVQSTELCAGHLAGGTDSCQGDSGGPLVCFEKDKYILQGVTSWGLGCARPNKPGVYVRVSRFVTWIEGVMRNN
# Sequence of Plasmin (P00747 97-580 limits assumed, species assumed): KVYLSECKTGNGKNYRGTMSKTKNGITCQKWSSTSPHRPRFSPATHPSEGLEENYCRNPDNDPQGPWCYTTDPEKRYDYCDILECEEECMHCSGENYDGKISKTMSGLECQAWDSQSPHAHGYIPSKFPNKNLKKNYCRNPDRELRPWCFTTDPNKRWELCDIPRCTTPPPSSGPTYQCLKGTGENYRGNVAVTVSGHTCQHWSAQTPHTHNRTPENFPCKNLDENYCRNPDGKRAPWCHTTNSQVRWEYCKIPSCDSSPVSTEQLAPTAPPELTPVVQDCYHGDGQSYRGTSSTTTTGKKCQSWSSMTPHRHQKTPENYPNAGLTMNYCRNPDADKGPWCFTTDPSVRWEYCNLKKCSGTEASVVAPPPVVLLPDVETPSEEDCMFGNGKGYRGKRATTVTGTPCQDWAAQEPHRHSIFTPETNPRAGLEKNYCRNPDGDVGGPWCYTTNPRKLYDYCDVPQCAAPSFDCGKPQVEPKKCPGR
SMILES,IC50 [1] [nM],IC50 [2] [nM],IC50 [3] [nM],IC50 [4] [nM],IC50 [5] [nM],IC50 [6] [nM],Inhibition of complement mediated hemolysis (%) ([7]; compound at 1 × 10^-4),Inhibition of complement mediated hemolysis (%) ([7]; compound at 1 × 10^-5),Inhibition of complement mediated hemolysis (%) ([7]; compound at 1 × 10^-6),Inhibition of complement mediated hemolysis (%) ([7]; compound at 1 × 10^-7)
CC(C)(C)c1ccc(C(=O)Oc2ccc(C(=N)N)cc2C(=O)c2ccccc2)cc1 [Compound 39],10,200,400,200,400,200,0,95.4,96.8,52.1
COc1ccc(C(=O)Oc2ccc(C(=N)N)cc2C(=O)c2ccccc2)cc1 [Compound 42],70,300,300,70,1000,40,100,99.1,70.0,7.6
CCCCOc1ccc(C(=O)Oc2ccc(C(=N)N)cc2[N+](=O)[O-])cc1 [Compound 44],20,3000,300,2000,4000,600,99.1,94.1,29.0,29.2
"N=C(N)c1ccc(OC(=O)c2ccc(OCc3ccccc3)cc2)c(C(=O)c2ccccc2)c1 [Compound 45, 4-amidino-2-benzoylphenyl 4-benzyloxybenzoate]",20,300,400,200,900,400,0,90.2,6.0,0
"N=C(N)c1ccc(OC(=O)c2ccc(O)cc2)c(C(=O)c2ccccc2)c1 [Compound 46, 4-amidino-2-benzoylphenyl 4-hydroxybenzoate]",50,600,300,40,2000,90,100,98.0,67.6,5.0
"N=C(N)c1cc(Br)c(OC(=O)c2ccc3c(c2)OCO3)c(Br)c1 [Compound 47, 4-amidino-2,6-dibromophenyl 3,4-methylenedioxybenzoate]",> 10000,> 10000,> 10000,> 10000,> 10000,30,33.5,10.4,13.4,0
N=C(N)c1ccc(OC(=O)C=Cc2ccc3c(c2)OCO3)c([N+](=O)[O-])c1 [Compound 48],2000,200,8000,400,> 10000,3000,94.0,94.8,75.3,23.2
COC(=O)c1ccc(C(=O)Oc2ccc(C(=N)N)cc2C(=O)c2ccccc2)cc1 [Compound 50],4000,500,> 10000,200,9000,> 10000,98.8,75.4,6.9,0
COC(=O)c1cc(C(=N)N)ccc1OC(=O)c1ccc(C=O)cc1 [Compound 51],200,300,> 10000,900,> 10000,3000,99.1,90.9,15.0,0
N=C(N)c1ccc(OC(=O)c2ccc(C=O)cc2)c(C(=O)c2ccccc2)c1 [Compound 52],3000,200,> 10000,90,5000,3000,100,98.8,75.4,12.8
"CC(=O)Oc1ccc(C=CC(=O)Oc2ccc(C(=N)N)cc2C(=O)c2ccccc2)cc1 [Compound 54, 4-amidino-2-benzoylphenyl 4-acetyloxycinnamate]",20,300,400,90,2000,200,99.1,98.6,79.4,41.1
"CC(=O)Nc1ccc(C(=O)Oc2ccc(C(=N)N)cc2C(=O)c2ccccc2)cc1 [Compound 56, 4-amidino-2-benzoylphenyl 4-acetylaminobenzoate]",50,300,400,60,1000,500,99.1,98.1,88.1,20.4
"COc1cc(C(=N)N)ccc1OC(=O)c1ccc(CNC(=O)OCc2ccccc2)cc1 [Compound 57, 4-amidino-2-methoxyphenyl 4-benzyloxycarbonylaminomethylbenzoate]",2000,200,3000,8000,> 10000,2000,70.5,14.8,2.3,0
"COc1cc(C(=N)N)ccc1OC(=O)c1ccc(CN)cc1 [Compound 58, 4-amidino-2-methoxyphenyl 4-aminomethylbenzoate]",8000,8000,2000,> 10000,> 10000,4000,93.4,20.0,3.0,0
